Assay results published in patent publication US7625580B1, “Semi-interpenetrating or interpenetrating polymer networks for drug delivery and tissue engineering” (Massachusetts Institute of Technology, priority 2000, dated 2009).

Test system: bovine chondroycytes
Assay: Biocompatibility of the photoinitiator, tested without polymer, on chondrocytes before and after UVA exposure
Format: cell-based
Conditions: for cell damage (morphology) after light exposure: UVA 3 minutes at 1-3 mW/cm^2
Excerpt: Although the initiator PHK is approved for dental applications, the initiator was examined without the presence of polymer to ascertain the toxicity of the radical produced to initiate a photopolymerization. The PEOD is very reactive towards the radical so the lack of polymer would make all radicals available to damage cells (a worst case scenario). Three initiator concentrations (0.1, 0.05 and 0.01% (w/w)) were examined.
Chondrocyte isolated from calf shoulders were maintained ex vivo in cell culture medium (DMEM) at 37° C. and 5% CO2. Cells were passaged approximately once a week. Approximately 10,000 cells per well in an 8-well tissue culture plate were seeded. 1-hydroxycylcohexyl-phenyl-ketone (HPK) was added to DMEM to reach 0.1, 0.05 and 0.01% (w/w) concentrations. The cells were incubated for 24 hours in the present of the initiator to examine possible acute cell toxicity. The cells were then exposed to UVA radiation (2 mW/cm^2) for 3 minutes to activate the photoactive initiator.
To determine the effect of photoactive initiator concentration on cells before exposure to light, cells were exposed to a concentration of 0% (w/w), 0.1% (w/w), 0.05% (w/w), and 0.01% (w/w).
The effect of photoactive initiator concentration on cells after exposure to light for four days was determined by exposing cells to a concentration of 0% (w/w), 0.1% (w/w), 0.05% (w/w), and 0.01% (w/w). The cells were compared morphologically and in relation to cell proliferation for 4 days.
Further analysis was made between controls which were a) not exposed to initiator or UVA, b) cells exposed to UVA only and c) cells exposed to UVA in the presence of 0.01% PHK. The effect of photoactive initiator on cells when exposed to no light or photoactive initiator, light only, 0.01% light and initiator, and 24 hours after light exposure was determined.

O=C(c1ccccc1)C1(O)CCCCC1 [initiator, 1-hydroxycylcohexyl-phenyl-ketone]
effect on proliferation and morphology (0.01% PHK with UVA versus no-treatment and UVA-only controls, 24 hours after light exposure): does not appear to alter proliferation and morphology | toxicity to cells before exposure to light (0.1, 0.05 and 0.01% (w/w), 24 hours incubation, no light): does not appear to be toxic | cell damage (morphology) after light exposure (initiator 0.01% versus control): no damage | cell damage (morphology) after light exposure (initiator 0.05%): Variable damage | cell damage (morphology) after light exposure (initiator 0.1%): extensive cell death
